From ChEMBL document CHEMBL6134857, “Novel Spiro-Barbiturates Can Reverse the Action of General Anesthetics on the GABAAR” (J Med Chem, 2025) come the findings set out here.

As a reminder, the IC50 is the concentration that gives 50% inhibition. Usually inhibition stands for the relative decrease from the control value, in per cent. One may read the EC50 as the concentration needed to bring the measured effect to its halfway point.

Holding throughout (assay type): cell membranes
The target in experiment [1] is T1, GABA-A receptor; alpha-1/beta-3/gamma-2 (Homo sapiens) (UniProt P14867+P18507+P28472). Briefly: Inhibition of R-mTFD-MPAB-induced [3H]muscimol binding to full length human N-terminal flag-tagged alpha1-beta3-C-terminal 1D4-tagged gamma2 GABAA receptor extracted from Tetracycline-resistant HEK293 cell membrane assessed as fold change at 300 uM incubated for 30 mins. The following applies: filed as modulator.

Experiment [2] addresses T2, GABA-A receptor; alpha-1/beta-3/gamma-2 (Homo sapiens, UniProt P14867+P18507+P28472).
T2 sequence (P14867 whole entry): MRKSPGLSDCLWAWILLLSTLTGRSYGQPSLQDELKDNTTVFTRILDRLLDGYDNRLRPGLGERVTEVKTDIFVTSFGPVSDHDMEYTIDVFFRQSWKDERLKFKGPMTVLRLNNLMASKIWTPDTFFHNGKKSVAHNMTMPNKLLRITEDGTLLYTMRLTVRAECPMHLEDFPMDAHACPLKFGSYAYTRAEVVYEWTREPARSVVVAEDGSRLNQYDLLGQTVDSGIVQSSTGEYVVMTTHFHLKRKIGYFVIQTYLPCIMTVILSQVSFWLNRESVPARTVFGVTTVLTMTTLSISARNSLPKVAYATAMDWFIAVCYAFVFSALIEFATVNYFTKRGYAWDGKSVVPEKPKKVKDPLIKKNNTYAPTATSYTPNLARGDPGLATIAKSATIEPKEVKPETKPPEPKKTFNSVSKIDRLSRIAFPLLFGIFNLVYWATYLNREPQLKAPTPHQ
T2 sequence (P18507 whole entry): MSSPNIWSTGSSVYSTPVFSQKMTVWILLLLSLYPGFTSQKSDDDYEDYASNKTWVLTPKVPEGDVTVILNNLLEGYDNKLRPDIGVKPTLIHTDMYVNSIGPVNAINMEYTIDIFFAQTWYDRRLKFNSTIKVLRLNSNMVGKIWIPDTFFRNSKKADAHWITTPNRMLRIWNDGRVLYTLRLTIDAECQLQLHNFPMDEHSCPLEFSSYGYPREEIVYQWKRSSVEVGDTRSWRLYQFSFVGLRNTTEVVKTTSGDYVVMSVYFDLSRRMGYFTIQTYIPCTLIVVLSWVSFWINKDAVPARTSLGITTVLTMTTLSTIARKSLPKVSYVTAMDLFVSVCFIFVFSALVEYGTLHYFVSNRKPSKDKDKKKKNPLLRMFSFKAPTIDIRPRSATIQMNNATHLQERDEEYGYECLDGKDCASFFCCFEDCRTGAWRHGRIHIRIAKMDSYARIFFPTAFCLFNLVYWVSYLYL
T2 sequence (P28472 whole entry): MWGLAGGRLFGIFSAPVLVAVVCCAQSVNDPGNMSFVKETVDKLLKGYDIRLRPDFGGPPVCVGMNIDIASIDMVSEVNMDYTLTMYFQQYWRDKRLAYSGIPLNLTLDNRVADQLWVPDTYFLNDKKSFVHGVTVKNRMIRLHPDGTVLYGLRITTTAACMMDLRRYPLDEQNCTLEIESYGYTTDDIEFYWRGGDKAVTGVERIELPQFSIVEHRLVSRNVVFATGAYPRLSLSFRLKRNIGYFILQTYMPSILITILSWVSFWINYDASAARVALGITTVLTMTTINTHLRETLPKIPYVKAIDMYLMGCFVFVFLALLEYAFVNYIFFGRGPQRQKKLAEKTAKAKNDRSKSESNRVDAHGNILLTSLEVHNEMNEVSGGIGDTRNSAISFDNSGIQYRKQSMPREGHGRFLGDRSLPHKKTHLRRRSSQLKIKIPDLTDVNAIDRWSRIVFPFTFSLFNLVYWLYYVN
Briefly: Inhibition of R-mTFD-MPAB-induced [3H]muscimol binding to full length human N-terminal flag-tagged alpha1-beta3-C-terminal 1D4-tagged gamma2 GABAA receptor extracted from Tetracycline-resistant HEK293 cell membrane incubated for 30 mins.

The target in experiment [3] is T1, GABA-A receptor; alpha-1/beta-3/gamma-2 (Homo sapiens). Briefly: Effect on [3H]muscimol binding to full length human N-terminal flag-tagged alpha1-beta3-C-terminal 1D4-tagged gamma2 GABAA receptor extracted from Tetracycline-resistant HEK293 cell membrane assessed as fold change in [3H]muscimol binding at 300 uM incubated for 30 mins. The following applies: filed as modulator.

The target is the same in experiment [4]. Put plainly: Inhibition of [3H]flunitrazepam binding to full length human N-terminal flag-tagged alpha1-beta3-C-terminal 1D4-tagged gamma2 GABAA receptor extracted from Tetracycline-resistant HEK293 cell membrane assessed as reduction in [3H]flunitrazepam binding at 300 uM incubated for 30 mins relative to control.
Experiment [5] shares this target. Briefly: Modulation of [3H]flunitrazepam binding to full length human N-terminal flag-tagged alpha1-beta3-C-terminal 1D4-tagged gamma2 GABAA receptor extracted from Tetracycline-resistant HEK293 cell membrane assessed as fold change in [3H]flunitrazepam binding at 300 uM incubated for 30 mins. As to conditions: filed as modulator.
For experiment [6] the target is unchanged. Briefly: Positive allosteric modulation on R-mTFD-MPAB-induced [3H]muscimol binding to full length human N-terminal flag-tagged alpha1-beta3-C-terminal 1D4-tagged gamma2 GABAA receptor extracted from Tetracycline-resistant HEK293 cell membrane at 300 uM incubated for 30 mins relative to control.
Experiment [7] deals with T2, GABA-A receptor; alpha-1/beta-3/gamma-2. Briefly: Positive allosteric modulation on [3H]muscimol binding to full length human N-terminal flag-tagged alpha1-beta3-C-terminal 1D4-tagged gamma2 GABAA receptor extracted from Tetracycline-resistant HEK293 cell membrane assessed as [3H]muscimol binding incubated for 30 mins.
Experiment [8] has the same target. Put plainly: Mixed-type inhibition of R-mTFD-MPAB-induced [3H]muscimol binding to full length human N-terminal flag-tagged alpha1-beta3-C-terminal 1D4-tagged gamma2 GABAA receptor extracted from Tetracycline-resistant HEK293 cell membrane incubated for 30 mins.
For experiment [9] the target is unchanged. Put plainly: Mixed effect on [3H]muscimol binding to full length human N-terminal flag-tagged alpha1-beta3-C-terminal 1D4-tagged gamma2 GABAA receptor extracted from Tetracycline-resistant HEK293 cell membrane assessed as [3H]muscimol binding incubated for 30 mins.
In experiment [10] the target is T1, GABA-A receptor; alpha-1/beta-3/gamma-2 (Homo sapiens). Put plainly: Inhibition of R-mTFD-MPAB-induced [3H]muscimol binding to full length human N-terminal flag-tagged alpha1-beta3-C-terminal 1D4-tagged gamma2 GABAA receptor extracted from Tetracycline-resistant HEK293 cell membrane at 300 uM incubated for 30 mins relative to control.
Experiment [11] has the same target. Put plainly: Effect on [3H]muscimol binding to full length human N-terminal flag-tagged alpha1-beta3-C-terminal 1D4-tagged gamma2 GABAA receptor extracted from Tetracycline-resistant HEK293 cell membrane assessed as [3H]muscimol binding at 300 uM incubated for 30 mins relative to control.

Consider `O=C1NC(=O)C2(CCc3ccccc32)C(=O)N1`, for which the fold change (FC) was 0.53 in experiment [1] and -0.02 in experiment [3]. In experiment [2], this compound returned an IC50 of 18 µM. Further, in experiment [4], the inhibition was found to be 12%.

Regarding `CN1C(=O)NC(=O)C2(CCc3ccc(Br)cc32)C1=O` (stereo in doubt; 6h-2), the fold change (FC) in experiment [1] stood at 1.09; in experiment [5], 0.61; in experiment [3], 0.35. Also, in experiment [4], the inhibition is 12%.

Consider `CC(C)c1ccc2c(c1)C1(CC2)C(=O)NC(=O)N(C)C1=O` (stereo in doubt; 5h-1) [listing 1 of 2 here], for which the results for the fold change (FC) in [1], in [5] and in experiment [3] were 0.73, 0.84 and 0.8, respectively. The compound also registered an Activity in experiment [6] (filed as positive allosteric modulator) of 80%. The inhibition in experiment [4] is 12%.

Turning to `O=C1NC(=O)C2(CCCCc3ccccc32)C(=O)N1`, the fold change (FC) in experiment [1] worked out at 0.98; in experiment [5], 0.43; in experiment [3] it was 0.22. Moreover, the inhibition in experiment [4] came out at 12%.

For the compound `O=C1NC(=O)C2(CC(O)c3ccccc32)C(=O)N1` (stereo in doubt; 1t-2), in experiment [2], the IC50 was found to be 113 µM.

On to `CN=C1NC(=O)C2(CCc3ccccc32)C(=O)N1` (centres undefined), for which the fold change (FC) in [1] is 0.35; in experiment [3], -0.09. The IC50 in experiment [2] was 99 µM.

Consider `CN1C(=O)NC(=O)[C@@]2(CCc3ccccc32)C1=O`, for which the results for the fold change (FC) in experiment [1], in experiment [5] and in experiment [3] were 0.78, 0.56 and 0.08, respectively. Also, in experiment [4], the inhibition amounted to 12%.

With `COc1ccc2c(c1)C1(CC2)C(=O)NC(=O)N(C)C1=O` (stereo in doubt; 7h-2), the fold change (FC) in experiment [1] was 0.73; in experiment [5], 0.88; in experiment [3], 0.37. The inhibition in [4] was found to be 12%.

Consider `CN1C(=O)NC(=O)C2(CCc3ccc(Br)cc32)C1=O` (stereo in doubt; 6h-1), for which the fold change (FC) came out at 0.99 in experiment [1], 0.65 in experiment [5] and 0.4 in experiment [3]. Further, the inhibition in experiment [4] came to 12%.

On to `CC(C)c1ccc2c(c1)C1(CC2)C(=O)NC(=O)N(C)C1=O` (stereo in doubt; 5h-1) [listing 2 of 2 here], for which, in experiment [7], the EC50 was found to be 32 µM.

As to `Cc1ccc2c(c1)C1(CC2)C(=O)NC(=O)N(C)C1=O` (stereo in doubt; 4h-2) [listing 1 of 2 here], the fold change (FC) in experiment [1] amounted to 0.54; in experiment [5], 0.72; in experiment [3], 0.37. In addition, in [4], the inhibition worked out at 12%.

`CC(C)c1ccc2c(c1)C1(CC2)C(=O)NC(=O)N(C)C1=O` (stereo in doubt; 5h-2) [listing 1 of 2 here]: the EC50 in experiment [7] was determined as 38 µM.

With `CC(C)c1ccc2c(c1)C1(CC2)C(=O)NC(=O)N(C)C1=O` (stereo in doubt; 5h-2) [listing 2 of 2 here], the fold change (FC) in experiment [1] amounted to 0.97; in [5], 0.59; in experiment [3] it was 0.14. Besides, the inhibition in experiment [4] is 12%.

With `Cc1ccc2c(c1)C1(CC2)C(=O)NC(=O)N(C)C1=O` (stereo in doubt; 4h-1), the fold change (FC) in experiment [1] amounted to 0.88; in experiment [5], 0.76; in [3] it was 0.15. Besides, the inhibition in experiment [4] was determined as 12%.

In the case of `O=C1NC(=O)C2(CCCc3ccccc32)C(=O)N1`, the fold change (FC) in experiment [1] turned out to be 0.97; in experiment [5], 0.45; in experiment [3] it was 0.08. Moreover, the inhibition in experiment [4] turned out to be 12%.

As for `Cc1ccc2c(c1)C1(CC2)C(=O)NC(=O)N(C)C1=O` (stereo in doubt; 4h-2) [listing 2 of 2 here], the IC50 in experiment [8] was 38 µM. Also, the EC50 in [9] worked out at 32 µM.

Turning to `CC(C)c1ccc2c(c1)C1(CC2)C(=O)NC(=O)NC1=O`, the fold change (FC) in experiment [1] amounted to 0.9; in [3], 0.26. For the same compound, the Activity in experiment [6] is 20%; in experiment [11], below 10%. Further, the inhibition in experiment [10] was above 40%. In addition, in [7], the EC50 amounted to 22 µM.
